Measured values published in patent US8163732B2, “Tricyclic heteroaryl compounds useful as inhibitors of Janus kinase” (Vertex Pharmaceuticals Incorporated, priority 2005, dated 2012).

What was measured:
JAK-2 = JAK-2 (Homo sapiens, UniProt O60674); experiment: JAK-2 inhibition assay; assay type: biochemical
JAK-3 = molecular target: T1, JAK-3 (Homo sapiens, UniProt P52333); experiment: JAK-3 inhibition assay; assay type: biochemical
T1 sequence (P52333 1-1124): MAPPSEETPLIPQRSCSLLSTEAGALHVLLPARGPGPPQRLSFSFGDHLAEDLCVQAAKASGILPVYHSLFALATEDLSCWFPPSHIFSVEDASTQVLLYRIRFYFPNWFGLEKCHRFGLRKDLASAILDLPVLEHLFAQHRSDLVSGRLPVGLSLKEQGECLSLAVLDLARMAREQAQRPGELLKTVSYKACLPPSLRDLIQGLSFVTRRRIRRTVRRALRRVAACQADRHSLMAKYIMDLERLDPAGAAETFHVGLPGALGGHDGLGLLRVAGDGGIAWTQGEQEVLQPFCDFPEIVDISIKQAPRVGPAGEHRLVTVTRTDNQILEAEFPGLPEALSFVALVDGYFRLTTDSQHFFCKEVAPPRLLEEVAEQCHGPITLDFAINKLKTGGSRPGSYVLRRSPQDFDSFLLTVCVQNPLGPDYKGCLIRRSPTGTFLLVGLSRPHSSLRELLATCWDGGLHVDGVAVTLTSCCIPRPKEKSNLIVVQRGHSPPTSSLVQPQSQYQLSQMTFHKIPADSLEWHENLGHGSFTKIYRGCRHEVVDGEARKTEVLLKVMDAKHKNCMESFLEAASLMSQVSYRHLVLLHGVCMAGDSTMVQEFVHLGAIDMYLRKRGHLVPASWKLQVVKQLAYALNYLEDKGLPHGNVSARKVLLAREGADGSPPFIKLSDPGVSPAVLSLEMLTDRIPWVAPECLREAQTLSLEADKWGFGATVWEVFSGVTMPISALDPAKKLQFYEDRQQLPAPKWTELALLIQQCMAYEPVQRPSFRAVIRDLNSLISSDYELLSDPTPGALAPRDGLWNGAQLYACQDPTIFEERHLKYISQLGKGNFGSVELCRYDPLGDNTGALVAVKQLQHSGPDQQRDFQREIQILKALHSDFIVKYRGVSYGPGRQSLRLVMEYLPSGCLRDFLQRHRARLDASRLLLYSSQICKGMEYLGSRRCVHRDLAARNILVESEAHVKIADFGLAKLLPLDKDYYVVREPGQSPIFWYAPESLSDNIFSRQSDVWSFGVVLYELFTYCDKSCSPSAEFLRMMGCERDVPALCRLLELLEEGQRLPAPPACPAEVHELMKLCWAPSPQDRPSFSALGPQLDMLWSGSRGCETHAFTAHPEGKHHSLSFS
Protocol: Compounds were screened for their ability to inhibit JAK using the assay shown below. Reactions were carried out in a kinase buffer containing 100 mM HEPES (pH 7.4), 1 mM DTT, 10 mM MgCl2, 25 mM NaCl, and 0.01% BSA.
Substrate concentrations in the assay were 5 μM ATP (200 μCi/μmole ATP) and 1 μM poly(Glu)4Tyr. Reactions were carried out at 25° C. and 1 nM JAK-3.
To each well of a 96 well polycarbonate plate was added 1.5 μL of a candidate JAK-3 inhibitor along with 50 μL of kinase buffer containing 2 μM poly(Glu)4Tyr and 10 μM ATP. This was then mixed and 50 μL of kinase buffer containing 2 nM JAK-3 enzyme was added to start the reaction. After 20 minutes at room temperature (25° C.), the reaction was stopped with 50 μL of 20% trichloroacetic acid (TCA) that also contained 0.4 mM ATP. The entire contents of each well were then transferred to a 96 well glass fiber filter plate using a TomTek Cell Harvester. After washing, 60 μL of scintillation fluid was added and ^33P incorporation detected on a Perkin Elmer TopCount. After removing the mean background values for all of the data points, the data were fit using Prism software to obtain a Ki value (app).

Sequence of JAK-2 (O60674 whole entry): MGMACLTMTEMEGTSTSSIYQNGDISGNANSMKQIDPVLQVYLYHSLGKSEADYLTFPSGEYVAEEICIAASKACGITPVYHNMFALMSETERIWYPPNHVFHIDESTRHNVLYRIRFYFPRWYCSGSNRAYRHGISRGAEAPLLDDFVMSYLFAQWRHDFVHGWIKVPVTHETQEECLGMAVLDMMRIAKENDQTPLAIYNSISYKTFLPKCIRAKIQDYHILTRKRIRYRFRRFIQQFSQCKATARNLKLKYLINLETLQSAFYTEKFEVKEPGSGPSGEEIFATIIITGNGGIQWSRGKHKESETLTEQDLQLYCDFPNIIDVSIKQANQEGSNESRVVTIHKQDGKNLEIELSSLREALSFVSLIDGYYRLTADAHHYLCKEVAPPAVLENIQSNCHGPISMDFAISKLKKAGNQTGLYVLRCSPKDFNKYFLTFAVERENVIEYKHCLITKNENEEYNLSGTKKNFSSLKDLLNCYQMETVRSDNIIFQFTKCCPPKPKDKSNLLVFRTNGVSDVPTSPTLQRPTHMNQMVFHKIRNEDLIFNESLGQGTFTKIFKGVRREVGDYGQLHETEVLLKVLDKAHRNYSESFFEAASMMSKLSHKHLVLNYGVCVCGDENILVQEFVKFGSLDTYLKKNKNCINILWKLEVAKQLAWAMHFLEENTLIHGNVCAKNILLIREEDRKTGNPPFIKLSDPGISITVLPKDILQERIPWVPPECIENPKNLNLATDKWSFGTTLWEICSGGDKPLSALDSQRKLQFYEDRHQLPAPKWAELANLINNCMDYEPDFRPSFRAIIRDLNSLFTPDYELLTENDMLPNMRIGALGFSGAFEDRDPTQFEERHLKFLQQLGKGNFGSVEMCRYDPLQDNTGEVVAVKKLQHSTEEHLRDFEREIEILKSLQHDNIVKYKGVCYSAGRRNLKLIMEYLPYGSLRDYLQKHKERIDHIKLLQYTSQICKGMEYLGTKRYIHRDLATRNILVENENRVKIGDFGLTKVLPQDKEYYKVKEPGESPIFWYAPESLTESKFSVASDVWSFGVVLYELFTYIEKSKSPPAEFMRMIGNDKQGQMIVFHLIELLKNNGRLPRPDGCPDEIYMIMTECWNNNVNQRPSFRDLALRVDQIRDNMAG

| SMILES | Ki (JAK-2) | Ki (JAK-3) |
| --- | --- | --- |
| c1ccc2c(c1)NC(c1ccc(-n3cncn3)cc1)c1c[nH]c3nccc-2c13 (stereo not drawn) [Compound 120] | > 2500 nM | > 2500 nM |
| Cc1cc(C2Nc3ccccc3-c3ccnc4[nH]cc2c34)sc1C (stereo not drawn) [Compound 124] | 250 to 2500 nM | 250 to 2500 nM |
| COc1ccc(C2NC(=O)c3ccccc3-c3ccnc4[nH]cc2c34)cc1 (stereo not drawn) [Compound 126] | > 2500 nM | > 2500 nM |
| COc1ccc(C2NC(=O)c3ccccc3-c3ccnc4[nH]cc2c34)cc1C (stereo not drawn) [Compound 129] | > 2500 nM | > 2500 nM |
| Clc1ccccc1COc1cccc(C2Nc3ccccc3-c3ccnc4[nH]cc2c34)c1 (stereo not drawn) [Compound 131] | < 250 nM | 250 to 2500 nM |
| Cc1ccc(COc2ccccc2C2Nc3ccccc3-c3ccnc4[nH]cc2c34)cc1 (stereo not drawn) [Compound 132] | > 2500 nM | > 2500 nM |
| FC(F)(F)Oc1ccc(C2Nc3ccccc3-c3ccnc4[nH]cc2c34)cc1 (stereo not drawn) [Compound 134] | 250 to 2500 nM | 250 to 2500 nM |
| COc1ccc(C2Nc3ccccc3-c3ccnc4[nH]cc2c34)cc1 (stereo not drawn) [Compound 135] | < 250 nM | ≤ 250 nM |
| Cc1ccc(C2Nc3ccccc3-c3ccnc4[nH]cc2c34)cc1 (stereo not drawn) [Compound 137] | 250 to 2500 nM | > 2500 nM |
| CC(C)Oc1ccc(C2Nc3ccccc3-c3ccnc4[nH]cc2c34)cc1 (stereo not drawn) [Compound 145] | < 250 nM | 250 to 2500 nM |
| CCOc1cc(C2Nc3ccccc3-c3ccnc4[nH]cc2c34)ccc1O (stereo not drawn) [Compound 148] | 250 to 2500 nM | 250 to 2500 nM |
| O=C1NC(c2ccc(Br)cc2)c2c[nH]c3nccc(c23)-c2ccccc21 (stereo not drawn) [Compound 152] | > 2500 nM | > 2500 nM |
| Brc1ccc(C2Nc3ccccc3-c3ccnc4[nH]cc2c34)cc1 (stereo not drawn) [Compound 153] | > 2500 nM | > 2500 nM |
| N#CCC1Nc2ccccc2-c2ccnc3[nH]cc1c23 (stereo not drawn) [Compound 155] | < 250 nM | ≤ 250 nM |
| CCN(CC)CCOc1ccc(C2Nc3ccccc3-c3ccnc4[nH]cc2c34)cc1 (stereo not drawn) [Compound 157] | < 250 nM | ≤ 250 nM |
| O=C1Nc2ccccc2-c2ncnc3[nH]cc(c23)C1c1ccc(O)c(F)c1 (stereo not drawn) [Compound 160] | < 250 nM | ≤ 250 nM |
| Cc1ccc(C2C(=O)Nc3ccccc3-c3ncnc4[nH]cc2c34)cc1 (stereo not drawn) [Compound 161] | < 250 nM | 250 to 2500 nM |
| CN(C(=O)Oc1ccc(C2Nc3ccccc3-c3ccnc4[nH]cc2c34)cc1F)c1ccccc1 (stereo not drawn) [Compound 162] | 250 to 2500 nM | 250 to 2500 nM |

Second part, the compound after the results:

| Ki (JAK-2) | Ki (JAK-3) | SMILES |
| --- | --- | --- |
| < 250 nM | ≤ 250 nM | Cn1cc2c3c(ncnc31)-c1ccccc1NC2c1ccc(O)c(F)c1 (stereo not drawn) [Compound 117] |
| 250 to 2500 nM | 250 to 2500 nM | c1ccc2c(c1)NC(c1ccc(-n3ccnc3)cc1)c1c[nH]c3nccc-2c13 (stereo not drawn) [Compound 119] |
| > 2500 nM | > 2500 nM | CS(=O)(=O)c1ccc(C2Nc3ccccc3-c3ccnc4[nH]cc2c34)cc1 (stereo not drawn) [Compound 121] |
| > 2500 nM | > 2500 nM | [O-][n+]1ccc(C2Nc3ccccc3-c3ccnc4[nH]cc2c34)cc1 (stereo not drawn) [Compound 122] |
| < 250 nM | 250 to 2500 nM | O=C1NC(c2ccc(O)cc2F)c2c[nH]c3nccc(c23)-c2ccccc21 (stereo not drawn) [Compound 127] |
| < 250 nM | ≤ 250 nM | OB(O)c1ccc(C2Nc3ccccc3-c3ccnc4[nH]cc2c34)cc1 (stereo not drawn) [Compound 128] |
| < 250 nM | 250 to 2500 nM | CCOC(=O)C1(c2ccc(OC)c(F)c2)Nc2ccccc2-c2ccnc3[nH]cc1c23 (stereo not drawn) [Compound 130] |
| < 250 nM | ≤ 250 nM | Cc1cc(O)ccc1C1Nc2ccccc2-c2ccnc3[nH]cc1c23 (stereo not drawn) [Compound 133] |
| > 2500 nM | > 2500 nM | FC(F)(F)c1ccc(C2Nc3ccccc3-c3ccnc4[nH]cc2c34)cc1 (stereo not drawn) [Compound 136] |
| > 2500 nM | > 2500 nM | Cc1cc(C2Nc3ccccc3-c3ccnc4[nH]cc2c34)ccc1F (stereo not drawn) [Compound 138] |
| 250 to 2500 nM | 250 to 2500 nM | O=[N+]([O-])c1cc(C2Nc3ccccc3-c3ccnc4[nH]cc2c34)ccc1O (stereo not drawn) [Compound 139] |
| < 250 nM | ≤ 250 nM | Cc1cc(C2Nc3ccccc3-c3ccnc4[nH]cc2c34)ccc1O (stereo not drawn) [Compound 140] |
| < 250 nM | 250 to 2500 nM | c1ccc2c(c1)NC(c1ccc3c(c1)CCO3)c1c[nH]c3nccc-2c13 (stereo not drawn) [Compound 141] |
| > 2500 nM | > 2500 nM | COc1ccc(C2Nc3ccccc3-c3ccnc4[nH]cc2c34)c(OC)c1 (stereo not drawn) [Compound 142] |
| > 2500 nM | > 2500 nM | c1ccc(-c2onc3ccc(C4Nc5ccccc5-c5ccnc6[nH]cc4c56)cc23)cc1 (stereo not drawn) [Compound 143] |
| 250 to 2500 nM | > 2500 nM | c1ccc2c(c1)NC(c1ccc3nsnc3c1)c1c[nH]c3nccc-2c13 (stereo not drawn) [Compound 144] |
| < 250 nM | ≤ 250 nM | CCCOc1ccc(C2Nc3ccccc3-c3ccnc4[nH]cc2c34)cc1 (stereo not drawn) [Compound 146] |
| > 2500 nM | > 2500 nM | c1ccc(Oc2ccc(C3Nc4ccccc4-c4ccnc5[nH]cc3c45)cc2)cc1 (stereo not drawn) [Compound 147] |
| < 250 nM | ≤ 250 nM | O=C1Nc2ccccc2-c2ccnc3[nH]cc(c23)C1c1ccc(O)c(F)c1 (stereo not drawn) [Compound 150] |
| < 250 nM | ≤ 250 nM | O=C1Nc2ccccc2-c2ncnc3[nH]cc(c23)C1c1ccc(O)cc1 (stereo not drawn) [Compound 158] |
| < 250 nM | ≤ 250 nM | CN1C(=O)C(c2ccc(O)cc2)c2c[nH]c3ncnc(c23)-c2ccccc21 (stereo not drawn) [Compound 159] |
